Consider 24 compounds from patent publication US9073821B2, “Hydroxamic acid derivative” (priority 2010, dated 2015).

The structures appear in SMILES notation. A value given as a limit tells only on which side of the number the result lay.

The target in one experiment is Pseudomonas aeruginosa LpxC enzyme (Pseudomonas aeruginosa (strain ATCC 15692 / DSM 22644 / CIP 104116 / JCM 14847 / LMG 12228 / 1C / PRS 101 / PAO1), UniProt P47205). The experiment is described as follows: biochemical. It is filed as biochemical. The following applies: class symbols A/B/C by IC50; Table 3; read-out: Enzyme inhibitory activity (inhibitory activity on Pseudomonas aeruginosa LpxC enzyme).
`CCN1Cc2cc(C#Cc3ccc(C(=O)N(C)C(C(=O)NC)C(=O)NO)cc3)ccc2[C@H]1C` (stereo partly drawn) [Compound 516, 2-{[(4-{[(1R)-2-ethyl-1-methyl-2,3-dihydro-1H-isoindol-5-yl]ethynyl}phenyl)carbonyl](methyl)amino}-N-hydroxy-N′-methylpropanediamide]: the IC50 was 10 to 100 nM.

As to `CCOC1CN(Cc2ccc(C#Cc3ccc(C(=O)N(C)C(C(=O)NC)C(=O)NO)cc3)c(F)c2F)C1` (stereo not drawn) [Compound 580, 2-[{[4-({4-[(3-ethoxyazetidin-1-yl)methyl]-2,3-difluorophenyl}ethynyl)phenyl]carbonyl}(methyl)amino]-N-hydroxy-N′-methylpropanediamide], the IC50 is under 10 nM.

Regarding `CCCC(C)(C)CNCc1ccc(C#Cc2ccc(C(=O)N(C)C(C(=O)NC)C(=O)NO)cc2)cc1` (stereo not drawn) [Compound 510, 2-[({4-[(4-{[(2,2-dimethylpentyl)amino]methyl}phenyl)ethynyl]phenyl}carbonyl)(methyl)amino]-N-hydroxy-N′-methylpropanediamide], the IC50 is under 10 nM.

Still in this experiment, the particulars now being: inhibitory activity on Pseudomonas aeruginosa LpxC enzyme, class symbols A/B/C; read-out: Enzyme inhibitory activity.
In the case of `CNC(=O)C(C(=O)NO)N(C)C(=O)c1ccc(-c2ccc3c(cnn3C)c2)cc1` (stereo not drawn) [Compound 196, N-hydroxy-N′-methyl-2-{methyl[4-(1-methyl-1H-indazol-5-yl)benzoyl]amino}propanediamide], the IC50 was under 10 nM.

As to `O=C(NC(C(=O)NO)C(=O)NCc1cocn1)c1ccc(-c2ccc(OCCO)cc2)cc1` (stereo not drawn) [Compound 157, N-hydroxy-2-({[4′-(2-hydroxyethoxy)biphenyl-4-yl]carbonyl}amino)-N′-(1,3-oxazol-4-ylmethyl)propanediamide], the IC50 was under 10 nM.

In the case of `O=C(NC(C(=O)NO)C(=O)NCCCc1ccccc1)c1ccc(-c2ccc(OCCO)cc2)cc1` (stereo not drawn) [Compound 126, N-hydroxy-2-({[4′-(2-hydroxyethoxy)biphenyl-4-yl]carbonyl}amino)-N′-(3-phenylpropyl)propanediamide], the IC50 was under 10 nM.

With `CNC(=O)C(C(=O)NO)N(C)C(=O)c1ccc(-c2ccc(OCCCN3CCC(F)(F)CC3)cc2)cc1` (stereo not drawn) [Compound 264, 2-[({4′-[3-(4,4-difluoropiperidin-1-yl)propoxy]biphenyl-4-yl}carbonyl)(methyl)amino]-N-hydroxy-N′-methylpropanediamide], the IC50 was under 10 nM.

Turning to `CNC(=O)[C@@](C)(C(=O)NO)N(C)C(=O)c1ccc(C#Cc2cnn(C)c2)cc1` [Compound 433, (2S)-N-hydroxy-N′,2-dimethyl-2-[methyl({4-[(1-methyl-1H-pyrazol-4-yl)ethynyl]phenyl}carbonyl)amino]propanediamide], the IC50 was under 10 nM.

`CNC(=O)C(C(=O)NO)N(C)C(=O)c1ccc(-c2ccc(OCC3(C)COC3)cc2)cc1` (stereo not drawn) [Compound 95, N-hydroxy-N′-methyl-2-[methyl({4′-[(3-methyloxetan-3-yl)methoxy]biphenyl-4-yl}carbonyl)amino]propanediamide]: the IC50 was under 10 nM.

Turning to `O=C(NC(C(=O)NO)C(=O)NCC1COc2ccccc2O1)c1ccc(-c2ccc(OCCO)cc2)cc1` (stereo not drawn) [Compound 149, N-(2,3-dihydro-1,4-benzodioxin-2-ylmethyl)-N′-hydroxy-2-({[4′-(2-hydroxyethoxy)biphenyl-4-yl]carbonyl}amino)propanediamide], the IC50 is under 10 nM.

With `CNC(=O)C(C(=O)NO)N(C)C(=O)c1ccc(-c2ccc(C3(C)OCCO3)cc2)cc1` (stereo not drawn) [Compound 254, N-hydroxy-N′-methyl-2-(methyl {[4′-(2-methyl-1,3-dioxolan-2-yl)biphenyl-4-yl]carbonyl}amino)propanediamide], the IC50 lay in the range of 10 to 100 nM.

Regarding `CNC(=O)C(C(=O)NO)N(C)C(=O)c1ccc(-c2ccc(C)nc2)cc1` (stereo not drawn) [Compound 450, N-hydroxy-N′-methyl-2-(methyl {[4-(6-methylpyridin-3-yl)phenyl]carbonyl}amino)propanediamide], the IC50 was over 100 nM.

As to `CNC(=O)C(C(=O)NO)N(C)C(=O)c1ccc(C#CC#Cc2ccc(CNC3CC3)cc2)cc1` (stereo not drawn) [Compound 476, 2-[{[4-(4-{4-[(cyclopropylamino)methyl]phenyl}buta-1,3-diyn-1-yl)phenyl]carbonyl}(methyl)amino]-N-hydroxy-N′-methylpropanediamide], the IC50 was under 10 nM.

For `O=C(NC(C(=O)NO)C(=O)NCC(=O)N1CCCC1)c1ccc(-c2ccc(OCCO)cc2)cc1` (stereo not drawn) [Compound 141, N-hydroxy-2-({[4′-(2-hydroxyethoxy)biphenyl-4-yl]carbonyl}amino)-N′-[2-oxo-2-(pyrrolidin-1-yl)ethyl]propanediamide], the IC50 was under 10 nM.

Take `CCNc1ccc(-c2ccc(C(=O)N(C)C(C(=O)NC)C(=O)NO)cc2)cc1` (stereo not drawn) [Compound 32, 2-[{[4′-(ethylamino)biphenyl-4-yl]carbonyl}(methyl)amino]-N-hydroxy-N′-methylpropanediamide]: the IC50 was under 10 nM.

On to `CNC(=O)C(C(=O)NO)N(C)C(=O)c1ccc(-c2ccc3c(c2)cc(CO)n3C)cc1` (stereo not drawn) [Compound 41, N-hydroxy-2-[{4-[2-(hydroxymethyl)-1-methyl-1H-indol-5-yl]benzoyl}(methyl)amino]-N′-methylpropanediamide], for which the IC50 was under 10 nM.

Regarding `CNC(=O)C(C(=O)NO)N(C)C(=O)c1ccc(C#Cc2ccc(C(C)N3CCOCC3)cc2)cc1` (stereo not drawn) [Compound 367, N-hydroxy-N′-methyl-2-(methyl {[4-({4-[1-(morpholin-4-yl)ethyl]phenyl}ethynyl)phenyl]carbonyl}amino)propanediamide], the IC50 was under 10 nM.

Consider `CNC(=O)C(C(=O)NO)N(C)C(=O)c1ccc(-c2ccccc2)cc1C` (stereo not drawn) [Compound 21, N-hydroxy-N′-methyl-2-{methyl[(3-methylbiphenyl-4-yl)carbonyl]amino}propanediamide], for which the IC50 is over 100 nM.

Turning to `CNC(=O)C(C(=O)NO)N(C)C(=O)c1ccc(-c2ccc(C(=O)N(C)C)cc2)cc1` (stereo not drawn) [Compound 252, N-[1-(hydroxyamino)-3-(methylamino)-1,3-dioxopropan-2-yl]-N,N′,N′-trimethylbiphenyl-4,4′-dicarboxamide], the IC50 was in the range of 10 to 100 nM.

For the compound `CNC(=O)C(C(=O)NO)N(C)C(=O)c1ccc(-c2ccccc2)s1` (stereo not drawn) [Compound 442, N-hydroxy-N′-methyl-2-{methyl[(5-phenylthiophen-2-yl)carbonyl]amino}propanediamide], the IC50 is over 100 nM.

In the case of `CNC(=O)C(C(=O)NO)N(C)C(=O)c1ccc(-c2ccc(NCCCOC)cc2)cc1` (stereo not drawn) [Compound 228, N-hydroxy-2-[({4′-[(3-methoxypropyl)amino]biphenyl-4-yl}carbonyl)(methyl)amino]-N′-methylpropanediamide], the IC50 was under 10 nM.

With `CNC(=O)C(C(=O)NO)N(C)C(=O)c1ccc(-c2ccc3c(c2)OCCO3)cc1` (stereo not drawn) [Compound 81, 2-{[4-(2,3-dihydro-1,4-benzodioxin-6-yl)benzoyl](methyl)amino}-N-hydroxy-N′-methylpropanediamide], the IC50 is under 10 nM.

On to `CNC(=O)C(C(=O)NO)N(C)C(=O)c1ccc(C#Cc2ccc(CNCCS(C)(=O)=O)cc2)cc1` (stereo not drawn) [Compound 378, N-hydroxy-N′-methyl-2-{methyl[(4-{[4-({[2-(methylsulfonyl)ethyl]amino}methyl)phenyl]ethynyl}phenyl)carbonyl]amino}propanediamide], for which the IC50 was under 10 nM.

As for `CNC(=O)C(C(=O)NO)N(C)C(=O)c1ccc(-c2cc(F)c(F)c(F)c2)cc1` (stereo not drawn) [Compound 220, N-hydroxy-N′-methyl-2-{methyl[(3′,4′,5′-trifluorobiphenyl-4-yl)carbonyl]amino}propanediamide], the IC50 is 10 to 100 nM.
